Source: PubChem BioAssay (NCI)
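Where inhibition never reached the appropriate level, the endpoint shown equals the highest concentration tested. Otherwise, values were interpolated linearly from a five-concentration, 48-hour dose response in 96-well plates. GI50 = concentration required for 50% inhibition of growth. The concentration for full growth arrest is given as TGI.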

Tests used:
Assay in all cases: growth of human tumour cells (NCI), 48 h
786-0 renal = tested on: 786-0 renal
HCC-2998 colon = tested on: HCC-2998 colon
SK-MEL-28 melanoma = tested on: SK-MEL-28 melanoma
SK-MEL-5 melanoma = tested on: SK-MEL-5 melanoma
U251 CNS = tested on: U251 CNS
ACHN renal = tested on: ACHN renal
NCI-H23 lung = tested on: NCI-H23 lung
MDA-MB-231 breast = tested on: MDA-MB-231 breast
K-562 leukemia = tested on: K-562 leukemia
LOX IMVI melanoma = tested on: LOX IMVI melanoma

SMILES	GI50 (786-0 renal) [µM]	TGI (786-0 renal) [µM]	GI50 (HCC-2998 colon) [µM]	TGI (HCC-2998 colon) [µM]	GI50 (SK-MEL-28 melanoma) [µM]	TGI (SK-MEL-28 melanoma) [µM]	GI50 (SK-MEL-5 melanoma) [µM]	TGI (SK-MEL-5 melanoma) [µM]	GI50 (U251 CNS) [µM]	TGI (U251 CNS) [µM]	GI50 (ACHN renal) [µM]	TGI (ACHN renal) [µM]	GI50 (NCI-H23 lung) [µM]	TGI (NCI-H23 lung) [µM]	GI50 (MDA-MB-231 breast) [µM]	TGI (MDA-MB-231 breast) [µM]	GI50 (K-562 leukemia) [µM]	TGI (K-562 leukemia) [µM]	TGI (LOX IMVI melanoma) [µM]	GI50 (LOX IMVI melanoma) [µM]
COc1ccc2c(c1)c(-c1nc(-c3cn(C)c4ccncc34)cs1)cn2C	1.6	3.15	1.89	3.38	1.71	3.15	1.52	2.85	1.85	3.4	1.73	3.11	1.81	3.45	1.83	3.53	1.9	4.2		
Oc1ccccc1-c1nn(CNc2ccc(Cl)cc2)c(=S)o1	> 100	> 100					2.31	> 100	31.9	> 100			0.511	64.5	> 100	> 100	0.263	> 100		
CSC(=O)C[C@@]12O[C@@H]([C@@H](C)C3CCC4[C@@H]5C(O)CC6=CC(=O)C=C[C@]6(C)C5CC[C@@]43C)C[C@](C)(O1)C(C)(C)O2 (stereo partly drawn)		30.2		41.6		32.1				25.2								19.9	25.1	
CC(=O)OC12C(C)=C(C)C(=O)N1c1ccccc1N2C(C)=O (stereo not drawn)		> 100		> 100		> 100		> 100		> 100		> 100		> 100				> 100	> 100	
COC(=O)CCC(=O)Nc1ccc(Cl)cc1C		> 100		> 100		> 100		> 100		> 100		> 100		> 100				> 100	> 100	
CCC(CC)n1cnc2c(-c3cnc(N)cn3)nc(N3CC4CCC(C3)O4)nc21	0.237	> 100	0.465	> 100			0.138	1.21	1.3	> 100	0.324	> 100	0.56	> 100	0.191	> 100	0.854	> 100	> 100	0.428
CCN(CC)CCN(CC)CC.CCN(CC)CCN(CC)CC.[Cu+2].[Cu+2].[O-][Cl+3]([O-])([O-])[O-].[OH3+].[OH3+]	46	> 100			22.1	45.5	15.6	29.5	17.2	32.1	> 100	> 100	31.1	77.8			53.1	> 100	45.7	14.4
Cc1ccc(OP(=O)(Oc2ccc(C)cc2)N2C=Cc3ccccc3C2C#N)cc1 (stereo not drawn)		> 100				> 100		> 100		> 100		> 100		> 100		> 100		> 100	> 100	
O=C(O)c1cccc(S(=O)(=O)NCCO)c1		> 100				> 100		> 100		> 100		> 100		> 100		> 100		> 100	> 100	
Nc1nc(=O)n(C2CCC(CO)O2)cc1F (stereo not drawn)		> 100		> 100		> 100		> 100		> 100		> 100		> 100				> 100	> 100	
CC(Oc1ccc2c(-c3ccc(Cl)cc3)cc(=O)oc2c1)C(=O)O (stereo not drawn)		> 100		> 100		> 100		> 100		> 100		> 100		> 100				> 100	> 100	
CSC(=NC(=O)c1ccccc1Cl)SCCSC(=NC(=O)c1ccccc1Cl)SC		> 100		> 100		> 100		> 100		> 100		> 100		> 100				> 100	> 100	
CC(=O)OCc1c(O)c2c([nH]c1=O)CCc1ccccc1-2		115		197		130		177		> 350		> 350		218				> 350	131	
Cc1ccc(/C=C/C(=O)c2ccc(Cl)c(Cl)c2)cc1		> 100		> 100		> 100		> 100		> 100		> 100		> 100				> 100	> 100	
O=C1c2ccccc2C(=O)N1CCc1ncc(-c2ccccc2)[nH]1		> 100		> 100		> 100		> 100		> 100		> 100		> 100		> 100		> 100		
O=S1(=O)c2ccccc2N(O)C2=NCCN21		> 100		> 100		> 100		> 100		> 100		> 100		> 100				> 100	> 100	
O=C1CCCCCCC2=C1C(Sc1ccccc1)CC2 (stereo not drawn)		33				94.8		> 100		> 100		> 100		> 100				> 100	30.7	

SMILES	GI50 (786-0 renal) [µM]	TGI (786-0 renal) [µM]	GI50 (HCC-2998 colon) [µM]	TGI (HCC-2998 colon) [µM]	GI50 (SK-MEL-28 melanoma) [µM]	TGI (SK-MEL-28 melanoma) [µM]	GI50 (SK-MEL-5 melanoma) [µM]	TGI (SK-MEL-5 melanoma) [µM]	GI50 (U251 CNS) [µM]	TGI (U251 CNS) [µM]	GI50 (ACHN renal) [µM]	TGI (ACHN renal) [µM]	GI50 (NCI-H23 lung) [µM]	TGI (NCI-H23 lung) [µM]	GI50 (MDA-MB-231 breast) [µM]	TGI (MDA-MB-231 breast) [µM]	GI50 (K-562 leukemia) [µM]	TGI (K-562 leukemia) [µM]	TGI (LOX IMVI melanoma) [µM]	GI50 (LOX IMVI melanoma) [µM]
COc1ccc(CC(=O)NCCc2ccc(OC)c(OC)c2OC)cc1		> 100		> 100		> 100		> 100		> 100		> 100		> 100				> 100		
CCCCCCCCCCCCSC(=S)c1c(C)[nH]n(-c2ccccc2)c1=O		> 50		21.5		> 50		15.9		> 50		> 50		35.8				> 50	> 50	
O=C(C[n+]1ccccc1)N/N=C(/CCC(=O)N(Cc1ccccc1)Cc1ccccc1)CC(=O)c1ccccc1		> 100		> 100		> 100		> 100		> 100		> 100		> 100				> 100	> 100	
O=[N+]([O-])c1nccn1CC(O)c1ccccc1 (stereo not drawn)		> 100				> 100		> 100		> 100		> 100		> 100				> 100	> 100	
CCOC(=O)C12CCCC1(O)N(NC(=O)OC)C(C)=C2C(=O)OC (stereo not drawn)		92.2		> 100		> 100				> 100		> 100		> 100				> 100	> 100	
O=C(CC1(O)C(=O)Nc2c(Cl)cc(Cl)cc21)c1ccccc1 (stereo not drawn)		> 100				> 100		> 100				> 100		> 100				> 100	> 100	
COc1ccc(N2C(=O)C3CC(c4ccc(Br)cc4)c4c([nH]c5ccccc45)C3C2=O)cc1 (stereo not drawn)		4.45				28.5		35.5				15.4		28.5				27.8	16.3	
CC(C)(C)C(=O)N1C(C(=O)O)Cc2ccccc2[C@@H]1Cc1ccccc1 (stereo partly drawn)		> 100		> 100		> 100		> 100		> 100		> 100		> 100				> 100		
[N-]=[N+]=NCN1C(=O)C2C3C=CC(C2C1=O)C1C2C(=O)N(CN=[N+]=[N-])C(=O)C2C31 (stereo not drawn)		> 100		69.8		> 100		> 100				> 100		> 100				> 100	> 100	
Cc1ccc(NCC2(/N=C/c3ccccc3)OC(CO)C(O)C2O)cc1 (stereo not drawn)		> 100		> 100		> 100		> 100		83.7		> 100		> 100				> 100		
COc1ccc(/C=C/c2cc(OC)c(OC(C)=O)c(OC)c2)cc1		> 100		39		25.3				38.4		> 100		61.4						
Cc1cccc(-c2nnc3s/c(=C\c4ccc(N(C)C)cc4)c(=O)n23)c1		> 100		> 100		> 100		> 100		> 100		> 100		> 100				> 100	> 100	
NC(=S)N1N=C2CCCCCC[C@@H]2[C@H]1c1ccccc1		> 100		> 100		> 100		> 100		> 100		> 100		> 100				> 100	> 100	
CCOC(=O)C1(C(=O)OCC)C(C(C)(C)C)=C(C)c2ccccc21		29.7		31.2		26.2		21.8		30.1		28		30.4				53.5	25	
COc1ccc(C(=O)C2CCC(C(=O)O)C2)cc1 (stereo not drawn)		> 100		> 100		> 100		> 100		> 100		> 100		> 100				> 100	> 100	
COc1nc(N)nc2c1ncn2C1CC(O)C(CO)O1 (stereo not drawn)		> 100				> 100		> 100		> 100		> 100		> 100		> 100		> 100	> 100	
